Patent US9125904B1, “Biphenyl imidazoles and related compounds useful for treating HCV infections” (ACHILLION PHARMACEUTICALS, INC., priority 2010, dated 2015)
Like-named read-outs stand apart in the source and are kept apart here.

Test system: HCV replicon
Assay: HCV replicon replication assay (NPT ELISA)
Assay type: cell-based
Conditions: Hepatitis C virus
Protocol: Compounds claimed herein are tested for the ability to inhibit viral replication of the Hepatitis C replicon in cultured cells in which the HCV replicon construct has been incorporated. The HCV replicon system was described by Bartenschlager, et. al (Science, 285, pp. 110-113 (1999)). The replicon system is predictive of in vivo anti-HCV activity; compounds that are active in humans uniformly evidence activity in the replicon assay.
In this assay HCV replicon containing cells are treated with different concentrations of the test compound to ascertain the ability of the test compound to suppress replication of the HCV replicon. As a positive control, HCV replicon-containing cells are treated with different concentrations of interferon alpha, a known inhibitor of HCV replication. The replicon assay system includes Neomycin Phosphotransferase (NPT) as a component of the replicon itself in order to detect the transcription of replicon gene products in the host cell. Cells in which the HCV replicon is actively replicating have high levels of NPT; the level of NPT is proportional to HCV replication. […] The NPT level of each sample is measured using a captured ELISA.
A protocol for testing compounds for the ability to inhibit viral replication of the Hepatitis C replicon cultured cells in which the replicon construct has been incorporated, follows.
The HCV replicon contains, 5′-3′, the HCV-IRES, the neomycin phosphotransferase (neo) gene, the IRES of encephalomyocarditis virus, which directs translation of HCV sequences NS3 to NS5B, and the 3′-NTR. The sequence of the HCV replicon has been deposited in GenBank (Accession no. AJ242652).
The replicon is transfected into Huh-7 cells using standard methods such as electroporation.
The equipment and materials include, but are not limited to, Huh-7 HCV replicon-containing cells, maintenance media (DMEM (Dulbecco's modified Eagle media) supplemented with 10% FBS, L-glutamine, non-essential amino acids, penicillin (100 units/ml), streptomycin (100 micrograms/ml), and 500 micrograms/ml of Geneticin (G418), screening media (DMEM supplemented with 10% FBS, L-glutamine, non-essential amino acids, penicillin (100 units/ml) and streptomycin (100 micrograms/ml)), 96 well tissue culture plates (flat bottom), 96 well plates (U bottom for drug dilution), Interferon alpha for positive control, fixation reagent (such as methanol: acetone), primary antibody (rabbit anti-NPTII), secondary antibody: Eu-N1 1, and enhancement solution.
HCV replicon-containing cells support high levels of viral RNA replicon replication when their density is suitable. Over-confluency causes decreased viral RNA replication. Therefore, cells must be kept growing in log phase in the presence of 500 micrograms/ml of G418. Generally, cells should be passed twice a week at 1: 4-6 dilution. Cell maintenance is conducted as follows:
HCV replicon-containing cells are examined under a microscope to ensure that cells growing well. Cells are rinsed once with PBS and 2 ml trypsin is added. The cell/trypsin mixture is incubated at 37° C. in a CO2 incubator for 3-5 minutes. After incubation 10 ml of complete media is added to stop the trypsinization reaction. Cells are blown gently, put into a 15 ml tube, and spun at 1200 rpm for 4 minutes. The trypsin/medium solution is removed. Medium (5 ml) is added and the cells are mixed carefully. The cells are counted.
The cells are then seeded onto 96-well plates at a density of 6000-7500 cells/100 microliters/well (6−7.5×10^5 cells/10 ml/plate). The plates are then incubated at 37° C. in a 5% CO2 incubator.
Cells are examined under a microscope approximated 24 hours after seeding and prior to adding drugs. If counting and dilution were performed correctly, cells are 60-70% confluent and nearly all cells should attach and spread evenly in the well.
HCV replicon-containing cells are rinsed with once PBS once; 2 mls of trypsin are then added. Cells are incubated at 37° C. in a 5% CO2 incubator for 3-5 minutes. […]

[1] = 72 h, Huh-7 HCV replicon-containing cells, three days, class symbols, read-out: EC50
[2] = 72 h, Huh-7 HCV replicon-containing cells, three days, numeric cells, read-out: EC50

Structure (SMILES) | EC50 [1] | also measured
CCCS(=O)(=O)N1CCN(Cc2ccc(NC(=O)c3ccc(-c4ccc(C(=O)Nc5ccc(CN6CCN(S(=O)(=O)CCC)CC6)cc5)cc4)cc3)cc2)CC1 [Compound 17, N4,N4′-bis(4-((4-(propylsulfonyl)piperazin-1-yl)methyl)phenyl)biphenyl-4,4′-dicarboxamide] | < 50 nM | –
CCCS(=O)(=O)N1CCN(Cc2ccc(NC(=O)c3ccc(-c4ccc(-c5c[nH]c([C@@H]6CCCN6C(=O)OC(C)(C)C)n5)cc4)cc3)cc2)CC1 [Compound 18, (S)-tert-butyl 2-(4-(4′-(4-((4-(propylsulfonyl)piperazin-1-yl)methyl)phenylcarbamoyl)biphenyl-4-yl)-1H-imidazol-2-yl)pyrrolidine-1-carboxylate] | < 50 nM | –
CCCS(=O)(=O)N1CCN(Cc2ccc(NC(=O)c3ccc(-c4ccc(-c5c[nH]c([C@@H]6CCCN6C(=O)[C@@H](NC(=O)OC)C(C)C)n5)cc4)cc3)cc2)CC1 [Compound 19, methyl (S)-3-methyl-1-oxo-1-((S)-2-(4-(4′-(4-((4-(propylsulfonyl)piperazin-1-yl)methyl)phenylcarbamoyl)biphenyl-4-yl)-1H-imidazol-2-yl)pyrrolidin-1-yl)butan-2-ylcarbamate] | < 50 nM | –
CC(C)(C)OC(=O)N1CC=CC1c1nc(-c2ccc(-c3ccc(-c4c[nH]c([C@@H]5C=CCN5C(=O)OC(C)(C)C)n4)cc3)cc2)c[nH]1 (stereo partly drawn) [Compound 20, (2R,2′R)-tert-butyl 2,2′-(4,4′-(biphenyl-4,4′-diyl)bis(1H-imidazole-4,2-diyl))bis(2,5-dihydro-1H-pyrrole-1-carboxylate)] | < 100 nM | –
COC(=O)N[C@H](C(=O)N1CC=CC1c1nc(-c2ccc(-c3ccc(-c4c[nH]c([C@@H]5C=CCN5C(=O)[C@@H](NC(=O)OC)C(C)C)n4)cc3)cc2)c[nH]1)C(C)C (stereo partly drawn) [Compound 21, dimethyl (2S,2′S)-1,1′-((2R,2′R)-2,2′-(4,4′-(biphenyl-4,4′-diyl)bis(1H-imidazole-4,2-diyl))bis(1H-pyrrole-2,1(2H,5H)-diyl))bis(3-methyl-1-oxobutane-2,1-diyl)dicarbamate] | < 5 nM | –
CCCS(=O)(=O)N1CCN(Cc2ccc(C(=O)Nc3ccc(-c4ccc(-c5c[nH]c([C@@H]6CCCN6C(=O)[C@@H](NC(=O)OC)C(C)C)n5)cc4)cc3)cc2)CC1 [Compound 22, methyl (S)-3-methyl-1-oxo-1-((S)-2-(4-(4′-(4-((4-(propylsulfonyl)piperazin-1-yl)methyl)benzamido)biphenyl-4-yl)-1H-imidazol-2-yl)pyrrolidin-1-yl)butan-2-ylcarbamate] | < 5 nM | –
CNC(=O)C[C@H](C(=O)N1CCC[C@H]1c1ncc(-c2ccc(-c3cnc([C@@H]4CCCN4C(=O)[C@@H](CC(=O)NC)C(C)(C)C)[nH]3)cc2)[nH]1)C(C)(C)C [Compound 23, (3S,3′S)-3,3′-(2S,2′S)-2,2′-(5,5′-(1,4-phenylene)bis(1H-imidazole-5,2-diyl))bis(pyrrolidine-2,1-diyl)bis(oxomethylene)bis(N,4,4-trimethylpentanamide)] | < 50 nM | –
COC(=O)N[C@H](C(=O)N1C2CCC(C2)[C@H]1c1nc(-c2ccc(-c3ccc(-c4c[nH]c([C@@H]5C6CCC(C6)N5C(=O)[C@@H](NC(=O)OC)C(C)C)n4)cc3)cc2)c[nH]1)C(C)C [Compound 24, dimethyl (2S,2′S)-1,1′-((3S,3′S)-3,3′-(4,4′-(biphenyl-4,4'-diyl)bis(1H-imidazole-4,2-diyl))bis(2-azabicyclo[2.2.1]heptane-3,2-diyl))bis(3-methyl-1-oxobutane-2,1-diyl)dicarbamate] | < 5 nM | –
COC(=O)NC(C(=O)N1c2ccccc2C[C@H]1c1nc(-c2ccc(-c3ccc(-c4cnc([C@@H]5Cc6ccccc6N5C(=O)C(NC(=O)OC)C(C)C)[nH]4)cc3)cc2)c[nH]1)C(C)C (stereo partly drawn) [Compound 25, dimethyl (2R,2′R)-1,1′-((2S,2′S)-2,2′-(5,5′-(biphenyl-4,4′-diyl)bis(1H-imidazole-5,2-diyl))bis(indoline-2,1-diyl))bis(3-methyl-1-oxobutane-2,1-diyl)dicarbamate] | < 5 nM | EC50 (Huh-7): ≤ 10000 nM
COC(=O)N[C@@H](C(=O)N1c2ccccc2C[C@H]1c1nc(-c2ccc(-c3ccc(-c4cnc([C@@H]5Cc6ccccc6N5)[nH]4)cc3)cc2)c[nH]1)C(C)C [Compound 26, methyl (R)-1-((S)-2-(4-(4′-(2-((S)-indolin-2-yl)-1H-imidazol-5-yl)biphenyl-4-yl)-1H-imidazol-2-yl)indolin-1-yl)-3-methyl-1-oxobutan-2-ylcarbamate] | < 5 nM | –
CC(C)(C)OC(=O)N1c2ccccc2C[C@H]1c1nc(-c2ccc(-c3ccc(-c4cnc([C@@H]5Cc6ccccc6N5C(=O)OC(C)(C)C)[nH]4)cc3)cc2)c[nH]1 [Compound 27, (2S,2′S)-tert-butyl 2,2′-(5,5′-(biphenyl-4,4′-diyl)bis(1H-imidazole-5,2-diyl))diindoline-1-carboxylate] | < 50 nM | –
CC(=O)N[C@H](C(=O)N1CC=CC1c1nc(-c2ccc(-c3ccc(-c4c[nH]c(C5C=CCN5C(=O)[C@@H](NC(C)=O)C(C)C)n4)cc3)cc2)c[nH]1)C(C)C (stereo partly drawn) [Compound 28, N,N′-(2S,2′S)-1,1′-((2R,2′R)-2,2′-(4,4′-(biphenyl-4,4′-diyl)bis(1H-imidazole-4,2-diyl))bis(1H-pyrrole-2,1(2H,5H)-diyl))bis(3-methyl-1-oxobutane-2,1-diyl)diacetamide] | < 50 nM | –
CCS(=O)(=O)N[C@H](C(=O)N1C2CCC(C2)[C@H]1c1nc(-c2ccc(-c3ccc(-c4c[nH]c([C@@H]5C6CCC(C6)N5C(=O)[C@@H](NS(=O)(=O)CC)C(C)C)n4)cc3)cc2)c[nH]1)C(C)C [Compound 33, N,N′-(2S,2′S)-1,1′-((3S,3′S)-3,3′-(4,4′-(biphenyl-4,4′-diyl)bis(1H-imidazole-4,2-diyl))bis(2-azabicyclo[2.2.1]heptane-3,2-diyl))bis(3-methyl-1-oxobutane-2,1-diyl)diethanesulfonamide] | < 5 nM | EC50 (Huh-7): ≤ 10000 nM
COC(=O)NC(C(=O)N1CCC[C@H]1c1ncc(-c2ccc(-c3ccc(-c4c[nH]c([C@@H]5Cc6ccccc6N5C(=O)C(NC(=O)OC)C(C)C)n4)cc3)cc2)[nH]1)C(C)C (stereo partly shown) [Compound 35] | < 5 nM | –
COC(=O)N[C@H](C(=O)N1CCC[C@H]1c1ncc(-c2ccc(-c3ccc(-c4c[nH]c([C@@H]5C6CCC(C6)N5C(=O)[C@@H](NC(=O)OC)C(C)C)n4)cc3)cc2)[nH]1)C(C)C (stereo partly shown) [Compound 36] | < 50 nM | –
CNC(=O)C[C@H](C(=O)N1CCC[C@H]1c1ncc(-c2ccc3c(c2)Cc2cc(-c4cnc([C@@H]5CCCN5C(=O)[C@@H](CC(=O)NC)C(C)(C)C)[nH]4)ccc2-3)[nH]1)C(C)(C)C [Compound 37, (3S,3′S)-3,3′-(2S,2′S)-2,2′-(5,5′-(9H-fluorene-2,7-diyl)bis(1H-imidazole-5,2-diyl))bis(pyrrolidine-2,1-diyl)bis(oxomethylene)bis(N,4,4-trimethylpentanamide)] | – | EC50 (Huh-7, 72 h): > 1 nM
CNC(=O)C[C@H](C(=O)N1C2CCC(C2)[C@H]1c1nc(-c2ccc(-c3ccc(-c4cnc([C@@H]5C6CCC(C6)N5C(=O)[C@@H](CC(=O)NC)C(C)C)[nH]4)cc3)cc2)c[nH]1)C(C)C (stereo partly drawn) [Compound 38, (3S,3′S)-3,3′-(3S,3′S)-3,3′-(4,4′-(biphenyl-4,4′-diyl)bis(1H-imidazole-4,2-diyl))bis(2-azabicyclo[2.2.1]heptane-3,2-diyl)bis(oxomethylene)bis(N,4-dimethylpentanamide)] | – | EC50 [2]: > 1 nM; EC50 (Huh-7): ≤ 10000 nM
COC(=O)N[C@H](C(=O)N1CCC[C@H]1c1cnc(-c2ccc(-c3ccc(NC(=O)[C@H]4CCCCN4C(=O)[C@H](NC(=O)OC(C)(C)C)c4ccccc4)cc3)cc2)[nH]1)C(C)C [Compound 39] | – | EC50 [2]: > 1 nM; EC50 (Huh-7): ≤ 10000 nM
